Results as given in patent US9242944B2 (UNIVERSITY OF MARYLAND, BALTIMORE, priority 2013, dated 2016).
Entries after “also recorded” stand apart in the source; their conditions may differ. Like-named read-outs stand apart in the source and are kept apart here.

Experiments:
[1] = test system: c-Myc-responsive promoter; assay: Myc reporter gene expression (luciferase) in HeLa cells; assay type: cell-based; details: markedly diminished within 6 h of compound addition
Excerpt: The generic reporter vector pGL4.28(luc2CP/minP/Hygro) (Promega Corp., Madison Wis.), which is specifically designed to reduce anomalous transcription and which contains a highly de-stabilized luciferase reporter was used to assess the effects of Myc inhibitors. […] A control vector containing this same oligonucleotide with mutant E-box sites ([NT] ID NO: 3) was used as a negative control. […] After automated DNA sequencing to confirm the identity of its respective insert, each vector was then separately co-transfected into HeLa cells together with the vector pFR400, which encodes a mutant form of dihydrofolate reductase that facilitates the step-wise amplification of the plasmid and any co-transfected sequences in the presence of increasing concentrations of the folate antagonist methotrexate (MTX). After first selecting for stably transfected cells by growth in hygromycin, the resistant clones were pooled and grown in serial four-fold increasing concentrations of MTX ranging from […]), thus allowing the luciferase signal originating from the first vector to be easily detected above background. No luciferase signal over background values could be obtained in unamplified cells or in amplified cells transfected with the mutant E-box-containing vector. […]

c-Myc-Max heterodimers = target: T1, c-Myc-Max heterodimers (Homo sapiens, UniProt P01106); assay: Electrophoretic mobility shift assay (EMSA) of c-Myc-Max dimerization and DNA binding
T1 construct: c-Myc bHLH-ZIP domain (residues 353-437); His6-TEV protease substrate tag; made in house; host or cells: bacteria (pET151 vector for Myc)
Procedure: The ability of a small-molecule to interfere with c-Myc-Max dimerization is conveniently assessed through the disruption of the c-Myc-Max/DNA ternary complex by an electrophoretic mobility shift assay (EMSA) using fluorescently-labelled DNA, and subsequently quantified by densitometry.(23) Accordingly, a 100-member library was screened for the ability to disrupt the c-Myc-Max dimer.
These were performed essentially as described previously (23). Briefly, Ni^+-agarose-purified His6-tagged c-Myc bHLH-ZIP domain (residues 353-437) was used for all binding assays as was the His6-tagged 151 residue isoform of Max, otherwise referred to as Max(S) (residues 2-151) (21). For each binding reaction, the proteins were allowed to heterodimerize at a concentration of 30 nM each in the presence of 20 nM of a 5′-HEX-tagged double-stranded 22-base pair oligonucleotide 5′-hexachlorofluoresceine-[…]-3′ (SEQ ID NO: 1) containing a consensus c-Myc binding site (CACGTG) and the indicated concentration of small molecule inhibitor. Control reactions contained the same oligonucleotide in the presence of 60 nM of the 160 residue isoform of Max referred to as Max(L) (21). All binding reactions were prepared in a buffer consisting of PBS (pH 7.3), 1 mmol/L EDTA, 0.1% NP40, 5% glycerol, 1 mmol/L DTT, and 0.4 mg/mL bovine serum albumin. Electrophoresis was performed on 8% polyacrylamide/bisacrylamide (80:1) gels in […] (23). Each reaction was run on at least three separate occasions.
EMSAs were performed essentially as described utilizing bacterially-expressed recombinant proteins purified nearly to homogeneity.(23) Experiments with Max homodimers used the His6-tagged 160 amino acid isoform of the protein, termed Max(L), which homodimerizes and binds DNA well. For studies with Myc-Max heterodimers, the His6-tagged 151 residue isoform of Max [Max(S)] was used, which binds DNA well as a heterodimer with Myc but poorly as a homodimer.(23) Recombinant Myc protein, expressed in the pET151 vector, consisted of the His6-TEV protease substrate-tagged 85 amino acid bHLH-ZIP domain. (23) Each protein was purified by Ni-agarose affinity chromatography as previously described. (23) The His6-TEV tag was removed from the Myc protein by TEV protease cleavage followed by re-purification using Ni-agarose affinity chromatography to remove the His6-TEV protease and the cleaved His6-TEV tag as previously described. Binding assays were performed with 30 nM of each protein and 30 nM of a 6-carboxy-2′,4,4′,5′,7,7′-hexachlorofluorescein (HEX)-tagged double-stranded oligonucleotide containing a consensus Myc binding site (IDT, Coralville, Iowa).(23)

c-Myc-Max dimerization = target: T2, c-Myc-Max dimerization (Homo sapiens, UniProt P01106); assay: Co-immunoprecipitation (Co-IP) of c-Myc with Max in HL60 cells; assay type: cell-based
T2 construct: endogenous in cells; host or cells: HL60
Procedure: Co-IP assays were performed essentially as described previously.(23) Briefly, 5×10^6 HL60 cells (>90% viable) in log-phase growth were treated in suspension for 4-6 h with the stated concentration of 3jc48-3. As a negative control, samples exposed to DMSO vehicle only were included and processed in parallel. Treated cells were collected by centrifugation, washed twice in ice-cold PBS and lysed in IP Buffer. 300 μg of cleared lysate was then precipitated with a 1:200 dilution of anti-Max antibody(23) followed by subsequent precipitation with protein G-Sepharose using conditions recommended by the supplier (Santa Cruz Biotechnology, Inc. Santa Cruz, Calif.). The precipitate was washed three times in IP buffer, boiled in running buffer and resolved by 10% SDS-PAGE. After electrotransfer of the proteins to a PVDF membrane (Millipore Corp. Billercica, Mass.), the blot was probed with a 1:1000 dilution of anti-Myc monoclonal antibody (9E10, Santa Cruz Biotechnology, Santa Cruz, Calif.). Blots were developed using a Pierce ECL Plus enhanced chemiluminescence kit according to the directions of the supplier (Thermo-Fisher, Pittsburgh, Pa.).

Max-Max homodimers = target: T3, Max-Max homodimers (Homo sapiens, UniProt P61244); assay: EMSA of Max-Max homodimerization and DNA binding; details: 50% inhibition of Max-Max dimerization and DNA binding in EMSAs
T3 construct: His6; made in house; host or cells: bacteria

Daudi cells = assay: Growth inhibition (MTT assay) in Daudi cells; assay type: cell-based; details: 10-point serial dilution, quadruplicate; for IC50: read-out: IC50 Daudi
Procedure: (§1) These were performed using HL60 human promyelocytic leukemia cells or Daudi Burkitt lymphoma cells essentially as described previously (23). Briefly, cells were seeded into 96 well dishes (5000 cells/well and 10,000 cells/well for HL60 and Daudi cells, respectively). Growth medium consisted of RPMI medium supplemented with Penicillin/Streptomycin, glutamine and 10% fetal bovine serum. The indicated concentrations of each compound were then added and 10-point growth inhibition assays were performed 3-5 days later using the MTT assay. Each point was performed in quadruplicate.
(§2) Daudi Burkitt lymphoma and HL60 promyelocytic leukemia cells were maintained in RPMI medium supplemented with 10% fetal bovine serum.(23) For growth inhibition studies, 3×10^3 cells were seeded in 96 well plates in the presence of serial dilutions of each compound. A total of 10 dilutions, ranging from 0.1 to 50 μM were performed for each compound. Standard MTT assays (23) were used to quantify cell number 3-4 days later and compared to wells exposed to DMSO vehicle only.

HL60 cells [2] = assay: Growth inhibition (MTT assay) in HL60 cells; assay type: cell-based, human; details: 10-point serial dilution, quadruplicate; for IC50: read-out: IC50 HL60
Procedure: as §1, §2

HL60 cells [3] = assay: Cell cycle analysis (propidium iodide, flow cytometry); assay type: cell-based; details: 24 h
Procedure: Sub-confluent cultures of cells at >90% viability were plated into fresh medium at densities that were typically about 10% of those attained at the point of density arrest. The next day, Myc inhibitors at the stated concentrations were added for 24-48 hr. The cells were then harvested, washed twice in PBS and stained with propidium iodide as previously described(23). Cell cycle analyses were performed on a BD FACSCalibur™ flow cytometer (Becton Dickinson, Inc. Franklin Lakes, N.J.) and analyzed using ModFit LT 3.3 (Verity Software House, Topsham, Me.).

T1 sequence (P01106 368-452, one chain of several): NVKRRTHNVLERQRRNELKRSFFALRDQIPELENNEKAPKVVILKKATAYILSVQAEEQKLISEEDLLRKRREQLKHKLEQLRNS
T2 sequence (P01106 16-454 limits assumed): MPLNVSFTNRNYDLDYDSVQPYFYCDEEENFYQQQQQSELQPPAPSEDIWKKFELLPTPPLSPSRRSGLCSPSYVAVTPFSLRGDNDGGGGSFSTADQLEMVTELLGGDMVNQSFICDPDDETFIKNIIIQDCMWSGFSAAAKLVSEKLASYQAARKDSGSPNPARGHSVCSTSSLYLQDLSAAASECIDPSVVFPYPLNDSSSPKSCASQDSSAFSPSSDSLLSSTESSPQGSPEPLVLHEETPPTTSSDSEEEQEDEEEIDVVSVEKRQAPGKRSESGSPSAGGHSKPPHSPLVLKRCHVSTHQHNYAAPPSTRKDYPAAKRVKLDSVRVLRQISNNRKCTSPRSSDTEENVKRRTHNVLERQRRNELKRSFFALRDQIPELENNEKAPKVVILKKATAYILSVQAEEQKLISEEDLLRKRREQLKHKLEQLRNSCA
T3 sequence (P61244 whole entry): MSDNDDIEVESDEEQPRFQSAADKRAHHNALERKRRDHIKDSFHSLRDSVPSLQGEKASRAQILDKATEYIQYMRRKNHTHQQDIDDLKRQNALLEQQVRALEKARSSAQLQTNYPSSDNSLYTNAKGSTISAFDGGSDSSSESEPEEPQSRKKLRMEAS

COC(=O)c1ccc(Nc2ccc([N+](=O)[O-])c3nonc23)c(-c2ccc(C)cc2)c1 [Compound 3jc48-3, Methyl 4′-methyl-6-((7-nitrobenzo[c][1,2,5]oxadiazol-4-yl)amino)-[1,1′-biphenyl]-3-carboxylate]
inhibition of luciferase reporter under c-Myc-responsive vs NF-κB-responsive promoter [1]: selectively inhibits the expression of the luciferase gene under the control of a c-Myc promoter; also recorded: selectively inhibited the c-Myc-driven gene
IC50 (c-Myc-Max heterodimers; 50% inhibition of c-Myc-Max dimerization and DNA binding in EMSAs): 34.8 µM
c-Myc-Max inhibitory potency relative to 10074-G5 (c-Myc-Max heterodimers; EMSA): approximately five-fold improvement
selectivity for Myc-Max heterodimers over Max-Max homodimers (c-Myc-Max heterodimers; EMSA): about two-fold selective; also recorded: two-fold selectivity
inhibition at 100 µM (c-Myc-Max heterodimers; Table 10, 100 μM small-molecule, EMSA, read-out: % Inhibition of c-Myc-Max Dimerization): 94%
disruption of c-Myc-Max dimerization in cells (co-IP) (c-Myc-Max dimerization): capable of disrupting c-Myc-Max dimerization within cells
IC50 (Max-Max homodimers): 60.6 µM
IC50 Daudi (Daudi cells): single-digit micromolar
IC50 (Daudi cells): 1.28 ± 0.73 µM
IC50 (Daudi cells; Homo sapiens, Daudi): 1.3 µM
IC50 (HL60 cells [2]; Homo sapiens, HL-60, MTT assay): 3.8 µM
IC50 HL60 (HL60 cells [2]; MTT assay): single-digit micromolar
IC50 (HL60 cells [2]; MTT assay): 3.5 ± 0.54 µM
cell cycle arrest, cells in G0/G1 (HL60 cells [3]): blocking progression of the cell cycle beyond the G0/G1 phase; also recorded: dose-dependently increased the percentage of HL60 cells in the G0/G1 stage
